Measurements: patent US20230219904A1 (SYNGENTA CROP PROTECTION AG, priority 2020, published 2023)

What was measured:
Assay type in all cases: in vivo
[1] = tested on: Abutilon theophrasti (ABUTH); experiment: Pre-emergence herbicidal glasshouse test (Table B1); details: evaluated after 13 days
Summary of the method: (§1)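 Glasshouse pot test: compounds sprayed pre-emergence (day 1) or post-emergence (day 8) at 500 g/h unless stated. Evaluation at 13 days as percentage damage, reported on a five-point scale where 5 means 80-100%.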

[2] = tested on: Amaranthus retoflexus (AMARE); experiment: as above; details: evaluated after 13 days
Summary of the method: as §1

[3] = tested on: Echinochloa crus-galh (ECHCG); experiment: as above; details: evaluated after 13 days
Summary of the method: as §1

[4] = tested on: Ipomoea hederacea (IPOHE); experiment: as above; details: evaluated after 13 days
Summary of the method: as §1

Setaria faberi (SETFA) [5] = experiment: as above; details: evaluated after 13 days
Summary of the method: as §1

[6] = tested on: Abutilon theophrasti (ABUTH); experiment: Post-emergence herbicidal glasshouse test (Table B1); details: evaluated after 13 days
Summary of the method: as §1

[7] = tested on: Amaranthus retoflexus (AMARE); experiment: as above; details: evaluated after 13 days
Summary of the method: as §1

[8] = tested on: Echinochloa crus-galh (ECHCG); experiment: as above; details: evaluated after 13 days
Summary of the method: as §1

[9] = tested on: Ipomoea hederacea (IPOHE); experiment: as above; details: evaluated after 13 days
Summary of the method: as §1

Setaria faberi (SETFA) [10] = experiment: as above; details: evaluated after 13 days
Summary of the method: as §1

[11] = tested on: ABUTH (Abutilon theophrasti); experiment: Comparative test, PRE application (Table B2); details: evaluated after 14 days
Procedure: (§2) TABLE B2—COMPARATIVE TEST
(§3) Seeds of test species were sown in standard soil in pots. After cultivation for one day under controlled conditions in a glasshouse (at 24/16° C., day/night; 14 hours light; 65% humidity), the plants were sprayed with an aqueous spray solution derived from the formulation of the technical active ingredient in 0.6 ml acetone and 45 ml formulation solution containing 10.6% Emulsogen EL (Registry number 61791-12-6), 42.2% N-methyl pyrrolidone, 42.2% dipropylene glycol monomethyl ether (CAS RN 34590-94-8) and 0.2% X-77 (CAS RN 11097-66-8). The test plants were then grown in a glasshouse under controlled conditions in a glasshouse (at 24/16° C., day/night; 14 hours light; 65% humidity) and watered twice daily. After 14 days, the test was evaluated (100=total damage to plant; 0=no damage to plant).
(§4) Test species: ABUTH (Abutilon theophrasti); BRO′I′L (Bromus tectorum); ECHCG (Echinochloa crus-galli); SINAR (Sinapis arvensis).

BROTE (Bromus tectorum) = experiment: Comparative test, PRE application (Table B2); details: evaluated after 14 days
Procedure: as §2, §3, §4

[12] = tested on: ECHCG (Echinochloa crus-galli); experiment: Comparative test, PRE application (Table B2); details: evaluated after 14 days
Procedure: as §2, §3, §4

SINAR (Sinapis arvensis) = experiment: Comparative test, PRE application (Table B2); details: evaluated after 14 days
Procedure: as §2, §3, §4

Row | Compound | PRE Application ABUTH, percentage damage on five-point scale ([1]; applied at 125 g/ha) | PRE Application AMARE, percentage damage on five-point scale ([2]; applied at 125 g/ha) | PRE Application ECHCG, percentage damage on five-point scale ([3]; applied at 125 g/ha) | PRE Application IPOHE, percentage damage on five-point scale ([4]; applied at 125 g/ha) | PRE Application SETFA, percentage damage on five-point scale (Setaria faberi (SETFA) [5]; applied at 125 g/ha) | POST Application AMARE, percentage damage on five-point scale ([7]; applied at 125 g/ha) | POST Application ECHCG, percentage damage on five-point scale ([8]; applied at 125 g/ha) | POST Application IPOHE, percentage damage on five-point scale ([9]; applied at 125 g/ha) | damage to plant ABUTH (100=total damage to plant; 0=no damage to plant) ([11]; 30 g/ha) | damage to plant ABUTH (100=total damage to plant; 0=no damage to plant) ([11]; 130 g/ha) | damage to plant ABUTH (100=total damage to plant; 0=no damage to plant) ([11]; 250 g/ha) | damage to plant BROTE (100=total damage to plant; 0=no damage to plant) (BROTE (Bromus tectorum); 30 g/ha) | damage to plant BROTE (100=total damage to plant; 0=no damage to plant) (BROTE (Bromus tectorum); 130 g/ha) | damage to plant BROTE (100=total damage to plant; 0=no damage to plant) (BROTE (Bromus tectorum); 250 g/ha) | damage to plant ECHCG (100=total damage to plant; 0=no damage to plant) ([12]; 30 g/ha) | damage to plant ECHCG (100=total damage to plant; 0=no damage to plant) ([12]; 130 g/ha) | damage to plant ECHCG (100=total damage to plant; 0=no damage to plant) ([12]; 250 g/ha) | damage to plant SINAR (100=total damage to plant; 0=no damage to plant) (SINAR (Sinapis arvensis); 30 g/ha) | damage to plant SINAR (100=total damage to plant; 0=no damage to plant) (SINAR (Sinapis arvensis); 130 g/ha) | damage to plant SINAR (100=total damage to plant; 0=no damage to plant) (SINAR (Sinapis arvensis); 250 g/ha) | also measured
1 | Cn1nnnc1NC(=O)c1ccc(OC(F)(F)F)c(NC(=O)c2ccccn2)c1Cl [Compound 1.012, N-[2-chloro-3-[(1-methyltetrazol-5-yl)carbamoyl]-6-(trifluoromethoxy)phenyl]pyridine-2-carboxamide] | 5 (5=80-100%) | 5 (5=80-100%) | 5 (5=80-100%) | 4 (4=60-79%) | 5 (5=80-100%) | 4 (4=60-79%) | 3 (3=40-59%) | 4 (4=60-79%) | 0 | 0 | 10 | 0 | 0 | 70 | 10 | 30 | 30 | 0 | 70 | 80 | POST Application ABUTH, percentage damage on five-point scale ([6]; applied at 125 g/ha): 4 (4=60-79%); POST Application SETFA, percentage damage on five-point scale (Setaria faberi (SETFA) [10]; applied at 125 g/ha): 4 (4=60-79%)
2 | CCC(=O)Nc1c(OC(F)(F)F)ccc(C(=O)Nc2nnnn2C)c1Cl [Compound 1.007, 2-chloro-N-(1-methyltetrazol-5-yl)-3-(propanoylamino)-4-(trifluoromethoxy)benzamide] | 5 (5=80-100%) | 5 (5=80-100%) | 5 (5=80-100%) | 5 (5=80-100%) | 5 (5=80-100%) | 5 (5=80-100%) | 5 (5=80-100%) | 4 (4=60-79%) | 0 | 60 | 90 | 0 | 0 | 20 | 20 | 70 | 90 | 10 | 60 | 100 | POST Application SETFA, percentage damage on five-point scale (Setaria faberi (SETFA) [10]; applied at 125 g/ha): 5 (5=80-100%)
3 | CC(=O)Nc1c(OC(F)(F)F)ccc(C(=O)Nc2nnnn2C)c1Cl [Compound 1.002] |  |  |  |  |  |  |  |  | 0 | 10 | 80 | 0 | 10 | 70 | 20 | 30 | 80 | 10 | 30 | 80 | PRE Application ABUTH, percentage damage on five-point scale ([1]; applied at 500 g/h): 5 (5=80-100%); PRE Application AMARE, percentage damage on five-point scale ([2]; applied at 500 g/h): 5 (5=80-100%); PRE Application ECHCG, percentage damage on five-point scale ([3]; applied at 500 g/h): 5 (5=80-100%); PRE Application IPOHE, percentage damage on five-point scale ([4]; applied): 1 (1=0-19%); PRE Application SETFA, percentage damage on five-point scale (Setaria faberi (SETFA) [5]; applied at 500 g/h): 2 (2=20-39%); POST Application ABUTH, percentage damage on five-point scale ([6]; applied at 500 g/h): 5 (5=80-100%); POST Application AMARE, percentage damage on five-point scale ([7]; applied at 500 g/h): 5 (5=80-100%); POST Application ECHCG, percentage damage on five-point scale ([8]; applied at 500 g/h): 5 (5=80-100%); POST Application IPOHE, percentage damage on five-point scale ([9]; applied at 500 g/h): 5 (5=80-100%); POST Application SETFA, percentage damage on five-point scale (Setaria faberi (SETFA) [10]; applied at 500 g/h): 5 (5=80-100%)
